Results taken from patent US11667649B2, “Heteroaromatic macrocyclic ether chemotherapeutic agents” (Nuvalent, Inc., priority 2020, dated 2023).

System: TPM3-NTRK1-wt IC50 / primary target (e.g. CD74-ROS1-wt) IC50, Ba/F3 cells
Assay: Cell assay TRKA selectivity (TRKA potency divided by primary target potency)
Assay type: cell-based
Conditions: for TPM3-NTRK1-wt/CD74-ROS1-G2032R: TRKA selectivity ratio: TPM3-NTRK1-wt IC50 / CD74-ROS1-G2032R IC50, Ba/F3 cells; for TPM3-NTRK1-wt/CD74-ROS1-wt: TRKA selectivity ratio: TPM3-NTRK1-wt IC50 / CD74-ROS1-wt IC50, Ba/F3 cells; for TPM3-NTRK1-wt/EML4-ALK-L1196M-G1202R: TRKA selectivity ratio: TPM3-NTRK1-wt IC50 / EML4-ALK-L1196M-G1202R IC50, Ba/F3 cells; for TPM3-NTRK1-wt/EML4-ALK-wt: TRKA selectivity ratio: TPM3-NTRK1-wt IC50 / EML4-ALK-wt IC50, Ba/F3 cells
In short: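 Ratio of TRKA to primary-target cellular IC50 (e.g. TPM3-NTRK1-wt/CD74-ROS1-wt), grouped into bins A >30, B >10, C ≥1, D <1. Each IC50 came from engineered Ba/F3 fusion lines grown without IL-3, dosed for 72 h and read as CellTiter-Glo luminescence, with a four-parameter logistic fit.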

SMILES | TPM3-NTRK1-wt/CD74-ROS1-G2032R | TPM3-NTRK1-wt/CD74-ROS1-wt | TPM3-NTRK1-wt/EML4-ALK-L1196M-G1202R | TPM3-NTRK1-wt/EML4-ALK-wt
C[C@H]1Oc2cc(cnc2N)-c2c(C#N)ncn2Cc2scnc2-c2ccc(F)cc21 [Example 64, (19R)-22-amino-16-fluoro-19-methyl-20-oxa-9-thia-4,6,11,23-tetraazapentacyclo[19.3.1.0^2,^6.0^8,^12.0^13,^18]pentacosa-1(24),2,4,8(12),10,13(18),14,16,21(25),22-decaene-3-carbonitrile] | A (bin A for very high selectivity, ratio>30-fold) | A (bin A for very high selectivity, ratio>30-fold) | B (bin B for high selectivity, ratio>10-fold) | A (bin A for very high selectivity, ratio>30-fold)
Cc1nc2c(s1)Cn1cnc(C#N)c1-c1cnc(N)c(c1)O[C@H](C)c1cc(F)ccc1-2 [Example 65, (19R)-22-amino-16-fluoro-10,19-dimethyl-20-oxa-9-thia-4,6,11,23-tetraazapentacyclo[19.3.1.0^2,^6.0^8,^12.0^13,^18]pentacosa-1(24),2,4,8(12),10,13(18),14,16,21(25),22-decaene-3-carbonitrile] | A (bin A for very high selectivity, ratio>30-fold) | A (bin A for very high selectivity, ratio>30-fold) | B (bin B for high selectivity, ratio>10-fold) | A (bin A for very high selectivity, ratio>30-fold)
Cc1nc2c(s1)Cn1ncc(C#N)c1-c1cnc(N)c(c1)O[C@H](C)c1cc(F)ccc1-2 [Example 67, (19R)-22-amino-16-fluoro-10,19-dimethyl-20-oxa-9-thia-5,6,11,23-tetraazapentacyclo[19.3.1.0^2,^6.0^8,^12.0^13,^18]pentacosa-1(24),2,4,8(12),10,13,15,17,21(25),22-decaene-3-carbonitrile] | A (bin A for very high selectivity, ratio>30-fold) | A (bin A for very high selectivity, ratio>30-fold) | C (bin C for moderate selectivity, ratio≥1) | A (bin A for very high selectivity, ratio>30-fold)
Cc1nc2c(s1)Cn1ncc(C(F)F)c1-c1cnc(N)c(c1)O[C@H](C)c1cc(F)ccc1-2 [Example 68, (19R)-3-(difluoromethyl)-16-fluoro-10,19-dimethyl-20-oxa-9-thia-5,6,11,23-tetraazapentacyclo[19.3.1.0^2,^6.0^8,^12.0^13,^18]pentacosa-1(24),2,4,8(12),10,13,15,17,21(25),22-decaen-22-amine] | B (bin B for high selectivity, ratio>10-fold) | A (bin A for very high selectivity, ratio>30-fold) | C (bin C for moderate selectivity, ratio≥1) | B (bin B for high selectivity, ratio>10-fold)
CCn1ncc2c1-c1cnc(N)c(c1)OCc1cc(F)ccc1-n1nc(C)cc1C2 [Example 69, 3-ethyl-16-fluoro-10-methyl-20-oxa-3,4,11,12,23-pentaazapentacyclo[19.3.1.0^2,^6.0^8,^12.0^13,^18]pentacosa-1(24),2(6),4,8,10,13,15,17,21(25),22-decaen-22-amine] | A (bin A for very high selectivity, ratio>30-fold) | A (bin A for very high selectivity, ratio>30-fold) | B (bin B for high selectivity, ratio>10-fold) | A (bin A for very high selectivity, ratio>30-fold)
CCn1nnc2c1-c1cnc(N)c(c1)O[C@H](C)c1cc(F)ccc1-c1ncc(F)cc1C2 [Example 70, (20R)-3-ethyl-10,17-difluoro-20-methyl-21-oxa-3,4,5,12,24-pentaazapentacyclo[20.3.1.0^2,^6.0^8,^13.0^14,^19]hexacosa-1(25),2(6),4,8(13),9,11,14,16,18,22(26),23-undecaen-23-amine] | A (bin A for very high selectivity, ratio>30-fold) | A (bin A for very high selectivity, ratio>30-fold) | C (bin C for moderate selectivity, ratio≥1) | A (bin A for very high selectivity, ratio>30-fold)
CCn1ncc2c1-c1cnc(N)c(c1)O[C@H](C)c1cc(F)ccc1-n1nc(F)cc1C2 [Example 71, (19R)-3-ethyl-10,16-difluoro-19-methyl-20-oxa-3,4,11,12,23-pentaazapentacyclo[19.3.1.0^2,^6.0^8,^12.0^13,^18]pentacosa-1(24),2(6),4,8,10,13,15,17,21(25),22-decaen-22-amine] | A (bin A for very high selectivity, ratio>30-fold) | B (bin B for high selectivity, ratio>10-fold) | C (bin C for moderate selectivity, ratio≥1) | B (bin B for high selectivity, ratio>10-fold)
Cc1nc2c(s1)Cc1cnn(C(F)F)c1-c1cnc(N)c(c1)O[C@H](C)c1cc(F)ccc1-2 [Example 72, (19R)-3-(difluoromethyl)-16-fluoro-10,19-dimethyl-20-oxa-9-thia-3,4,11,23-tetraazapentacyclo[19.3.1.0^2,^6.0^8,^12.0^13,^18]pentacosa-1(24),2(6),4,8(12),10,13,15,17,21(25),22-decaen-22-amine] | A (bin A for very high selectivity, ratio>30-fold) | A (bin A for very high selectivity, ratio>30-fold) | C (bin C for moderate selectivity, ratio≥1) | A (bin A for very high selectivity, ratio>30-fold)
CCn1nc(Cl)c2c1-c1cnc(N)c(c1)O[C@H](C)c1cc(F)ccc1-c1nn(C)cc1C2 [Example 73, (19R)-5-chloro-3-ethyl-16-fluoro-10,19-dimethyl-20-oxa-3,4,10,11,23-pentaazapentacyclo[19.3.1.0^2,^6.0^8,^12.0^13,^18]pentacosa-1(24),2(6),4,8,11,13,15,17,21(25),22-decaen-22-amine] | A (bin A for very high selectivity, ratio>30-fold) | A (bin A for very high selectivity, ratio>30-fold) | B (bin B for high selectivity, ratio>10-fold) | A (bin A for very high selectivity, ratio>30-fold)
CCn1ncc2c1-c1cnc(N)c(c1)O[C@H](C)c1cc(F)ccc1-n1nc(Cl)cc1C2 [Example 74, (19R)-10-chloro-3-ethyl-16-fluoro-19-methyl-20-oxa-3,4,11,12,23-pentaazapentacyclo[19.3.1.0^2,^6.0^8,^12.0^13,^18]pentacosa-1(24),2(6),4,8,10,13,15,17,21(25),22-decaen-22-amine] | A (bin A for very high selectivity, ratio>30-fold) | A (bin A for very high selectivity, ratio>30-fold) | B (bin B for high selectivity, ratio>10-fold) | A (bin A for very high selectivity, ratio>30-fold)
CCn1ncc2c1-c1cnc(N)c(c1)OCc1cc(F)ccc1-n1nc(Cl)cc1C2 [Example 75, 10-chloro-3-ethyl-16-fluoro-20-oxa-3,4,11,12,23-pentaazapentacyclo[19.3.1.0^2,^6.0^8,^12.0^13,^18]pentacosa-1(24),2(6),4,8,10,13,15,17,21(25),22-decaen-22-amine] | A (bin A for very high selectivity, ratio>30-fold) | A (bin A for very high selectivity, ratio>30-fold) | C (bin C for moderate selectivity, ratio≥1) | A (bin A for very high selectivity, ratio>30-fold)
CCn1nc(Cl)c2c1-c1cnc(N)c(c1)O[C@H](C)c1cc(F)ccc1-n1nc(C)cc1C2 [Example 76, (19R)-5-chloro-3-ethyl-16-fluoro-10,19-dimethyl-20-oxa-3,4,11,12,23-pentaazapentacyclo[19.3.1.0^2,^6.0^8,^12.0^13,^18]pentacosa-1(24),2(6),4,8,10,13,15,17,21(25),22-decaen-22-amine] | A (bin A for very high selectivity, ratio>30-fold) | A (bin A for very high selectivity, ratio>30-fold) | B (bin B for high selectivity, ratio>10-fold) | A (bin A for very high selectivity, ratio>30-fold)
CCn1ncc2c1-c1cnc(N)c(c1)O[C@H](C)c1cc(F)ccc1-c1ncoc1C2 [Example 77, (19R)-3-ethyl-16-fluoro-19-methyl-9,20-dioxa-3,4,11,23-tetraazapentacyclo[19.3.1.0^2,^6.0^8,^12.0^13,^18]pentacosa-1(24),2(6),4,8(12),10,13,15,17,21(25),22-decaen-22-amine] | A (bin A for very high selectivity, ratio>30-fold) | A (bin A for very high selectivity, ratio>30-fold) | C (bin C for moderate selectivity, ratio≥1) | A (bin A for very high selectivity, ratio>30-fold)
CCn1nnc2c1-c1cnc(N)c(c1)O[C@H](C)c1cc(F)ccc1-c1nc(C)sc1C2 [Example 78, (19R)-3-ethyl-16-fluoro-10,19-dimethyl-20-oxa-9-thia-3,4,5,11,23-pentaazapentacyclo[19.3.1.0^2,^6.0^8,^12.0^13,^18]pentacosa-1(24),2(6),4,8(12),10,13,15,17,21(25),22-decaen-22-amine] | A (bin A for very high selectivity, ratio>30-fold) | A (bin A for very high selectivity, ratio>30-fold) | B (bin B for high selectivity, ratio>10-fold) | A (bin A for very high selectivity, ratio>30-fold)
